Measurements as given in patent US10537555B2, “Complex of angiotensin receptor antagonist and neutral endopeptidase inhibitor” (CHENGDU EASTON BIOPHARMACEUTICALS CO., LTD., priority 2015, dated 2020).

Legend:
Assay type in all cases: physicochemical
[1] = Hygroscopy test (25±1° C., RH 80%±2%, 24 hours); details: for Appearance at Hour Twenty-Four / Weight Increase: 24 hours
Description: The results are in Table XII.

[2] = LCZ696 under high humidity conditions for ten days
Description: LCZ696 is highly hygroscopic. […] It is well known that hygroscopicity causes difficulties in granulations, disintegration, dissolution of the solid form during the formulation process, affecting the stability and efficacy of the drug product. Hygroscopic compounds also require more expensive and complex excipients, manufacturing processes, and storage facilities.

[3] = Chemical stability test (HPLC purity under strong light, high temperature, high humidity); design: Purity, Valsartan: unit not given here
Description: On Day 5 and Day 10, respectively, test samples were taken to test their purity.

CCCCC(=O)N(Cc1ccc(-c2ccccc2-c2nn[n-]n2)cc1)C(C(=O)[O-])C(C)C.CCCCC(=O)N(Cc1ccc(-c2ccccc2-c2nn[n-]n2)cc1)C(C(=O)[O-])C(C)C.CCOC(=O)C(C)CC(Cc1ccc(-c2ccccc2)cc1)NC(=O)CCC(=O)[O-].CCOC(=O)C(C)CC(Cc1ccc(-c2ccccc2)cc1)NC(=O)CCC(=O)[O-].O.O.O.O.O.[Na+].[Na+].[Na+].[Na+].[Na+].[Na+] (stereo not shown) [Comparative Example]
Appearance at Hour Twenty-Four [1]: Almost a liquid
Weight Increase [1]: 22.34%
Appearance at Hour Twenty-Four ([1]; listed as comparative example): almost became a liquid
Weight Increase ([1]; listed as comparative example): more than 15%
Appearance at Hour Zero ([1]; hour zero): Off white powder
Hygroscopicity, physical form after exposure [2]: absorbs water and turns into a liquid form
Change of HPLC purity in stability test ([3]; 10 days at 60° C., 25° C. RH90%±5%, or 4500 lux±500 lux): only slight decreases in purities
Purity, Valsartan ([3]; Humidity 25° C. RH90%, 5 days): 37.05
Purity, Valsartan ([3]; Humidity 25° C. RH90%, 10 days): 37.01
Purity, Valsartan ([3]; Light 4500Lux, 5 days): 37.04
Purity, Valsartan ([3]; Light 4500Lux, 10 days): 36.99
Purity, Valsartan ([3]; Temperature 60° C., 5 days): 37.03
Purity, Valsartan ([3]; Temperature 60° C., 10 days): 36.98
